molecular target: T1, p53 Y220C (Homo sapiens, UniProt P04637, P309S/R273H/Y220C); test: HTRF / TR-FRET in vitro DNA binding activity assay (SC150); assay type: biochemical; details: concentration required to increase DNA binding activity of p53 Y220C by 50%; TABLE 10
T1 construct: made in house; host or cells: E. coli
Experimental: The ability of a compound of the invention to stabilize p53 Y220C and increase the DNA binding activity of p53 Y220C was measured by a homogeneous time-resolved fluorescence (HTRF) assay. Recombinant His-tagged p53 Y220C used in the HTRF assay was expressed in the bacterium E. coli. The recombinant protein was a truncation mutant containing only amino acids 94-312 of p53, which encompassed the DNA binding domain (DBD) of p53 (SEQ ID NO.: 1). The His-tagged p53 Y220C was tested for DNA binding ability with a consensus sequence of DNA (DNA duplex with a sequence of 5′-[…]-3′; SEQ ID NO.: 2). SEQ ID NO.: 2 was then conjugated with a biotin label and used in the activity assay.
The binding of the recombinant His-tagged p53 Y220C protein and the biotin-labeled consensus DNA was measured using fluorescence resonance energy transfer (FRET). For the FRET assay, the binding between the p53 mutant and the DNA sequence was measured by detecting the fluorescence of the interaction between an anti-His antibody conjugated to allophycocyanin (APC) and streptavidin conjugated to europium to detect the biotin-labeled DNA.
The test compounds were prepared as 4.5 mM stock solutions in dimethyl sulfoxide (DMSO). The compounds of the disclosure were used to test the stabilization of p53 Y220C and increase in DNA binding activity of p53 Y220C. The stock solutions were then serially diluted 3-fold in DMSO, and 1.2 μL of the diluted solutions was added to each well of a 384-well polypropylene black plate. 30 μL of a 181 nM solution of the recombinant His-tagged p53 Y220C protein and 12.1 nM of APC conjugated anti-His tag antibody in ice-cold Assay Buffer 1 (50 mM Tris-HCl, pH 7.4; 75 mM KCl; 0.75 mM DTT; and 0.2 mg/mL bovine serum albumin (BSA) was added to each well containing the test compounds.
As a background control, 30 μL of Assay Buffer 1 containing 12.1 nM of APC anti-His antibody was also added into a second set of serially-diluted compound plates. The test and control samples were spun at 1200 rpm for 1 minute and incubated at room temperature for 15 minutes. The samples were then further incubated at either 27° C. or 29° C. for 60 min. Five microliters of 311 nM biotin labeled consensus DNA (SEQ ID NO.: 2) and 13.03 nM europium-conjugated streptavidin in Assay Buffer 2 (50 mM Tris-HCl, pH 7.4; 75 mM KCl; and 0.2 mg/mL BSA) were added to each well for both the test and control plates. The plates were spun at 1200 rpm for 1 minute and incubated at room temperature for 20 minutes. The assay signals were monitored by reading excitation at 340 nm, and emission fluorescence at 615 nm and 665 nm on a plate reader.
Normalized time-resolved fluorescence resonance energy transfer (TR-FRET) assay signal (Rn) was calculated by the formula: Rn=[(A−Ba−CD)/(D−Bd)](Dc−Bd) where A was the fluorescence intensity of the sample at 665 nm; D was the fluorescence intensity of the sample at 615 nm; Ba and Bd were plate background readings at 665 nm and 615 nm, respectively; and Dc was the fluorescence intensity of 1.8 nM Eu-SA in the assay buffer at 615 nm.
The cross talk factor (C) was determined by the following formula: C═(Ac−Ba)/(DC−Bd) where Ac was the fluorescence intensity of 1.8 nM Eu-labeled anti-FLAG antibody in the assay buffer at 665 nm.
The percentage of activation of protein DNA binding in the presence of a compound of the invention compared to the absence of the compound was denoted by a SC150 value, which indicated the concentration of the compound required to increase the DNA binding activity by 50%. The SC150 values were calculated using either Prism™ or ActivityBase™.

SC150 (μM)	Compound
′ (′ = 0 μM ≤ SC150 < 0.05 μM)	COc1cc(S(C)(=O)=O)ccc1NCC#Cc1cc2c(N[C@@H]3CCN(C)C[C@@H]3F)cccc2n1CC(F)(F)F [Compound 13, N-[(3S,4R)-3-fluoro-1-methylpiperidin-4-yl]-2-{3-[(4-methanesulfonyl-2-methoxyphenyl)amino]prop-1-yn-1-yl}-1-(2,2,2-trifluoroethyl)-1H-indol-4-amine]
′ (′ = 0 μM ≤ SC150 < 0.05 μM)	CNC(=O)c1ccc(NCC#Cc2cc3c(NC4CCC(N5CC(S(C)(=O)=O)C5)CC4)cccc3n2CC(F)(F)F)c(OC)c1 (stereo not shown) [Molecule 1330]
′′′ (′′′ = 0.1 μM ≤ SC150 < 0.2 μM)	COc1cc(C(N)=O)ccc1NCC#Cc1cc2c(NC3C[C@@H](C)O[C@@H](C)C3)cccc2n1CC(F)(F)F (stereo partly shown) [Molecule 2168]
′ (′ = 0 μM ≤ SC150 < 0.05 μM)	COc1cc(S(N)(=O)=O)ccc1NCC#Cc1cc2c(NC3CCN(C[C@@H](O)CO)CC3)cccc2n1CC(F)(F)F [Molecule 1687]
′ (′ = 0 μM ≤ SC150 < 0.05 μM)	COc1cc(C(N)=O)ccc1NCC#Cc1cc2c(N[C@@H]3CCN(C)C[C@@H]3F)cccc2n1CC(F)(F)F [Molecule 1938]
′ (′ = 0 μM ≤ SC150 < 0.05 μM)	COCC(O)CN1CCC(Nc2cccc3c2cc(C#CCNc2ccc(S(C)(=O)=O)cc2OC)n3CC(F)(F)F)CC1 (stereo not shown) [Compound 7, 1-{4-[(2-{3-[(4-methanesulfonyl-2-methoxyphenyl)amino]prop-1-yn-1-yl}-1-(2,2,2-trifluoroethyl)-1H-indol-4-yl)amino]piperidin-1-yl}-3-methoxypropan-2-ol]
′ (′ = 0 μM ≤ SC150 < 0.05 μM)	COc1cc(C(N)=O)ccc1NCC#Cc1cc2c(N[C@H]3CCN(C)C[C@H]3F)cccc2n1CC(F)(F)F [Molecule 1939]
′′′′ (′′′′ = 0.2 μM ≤ SC150 < 1 μM)	COc1cc(S(C)(=O)=O)ccc1NCC#Cc1cc2c(NC(=O)NC3CCN(CCO)CC3)cccc2n1CC(F)(F)F [Molecule 1155]
′ (′ = 0 μM ≤ SC150 < 0.05 μM)	CN1CCC(Nc2cccc3c2cc(C#CCNc2ccc(S(C)(=O)=O)cc2O)n3CC(F)(F)F)CC1 [Molecule 1623]
′ (′ = 0 μM ≤ SC150 < 0.05 μM)	COc1cc(S(=O)(=O)Nc2ccon2)ccc1NCC#Cc1cc2c(NC3CCC(N(C)C)CC3)cccc2n1CC(F)(F)F (stereo not shown) [Molecule 1188]
′ (′ = 0 μM ≤ SC150 < 0.05 μM)	CNC(=O)c1ccc(NCC#Cc2cc3c(N[C@H]4CCN(C)C[C@H]4F)cccc3n2CC(F)(F)F)c(OC)c1 [Molecule 1921]

The next lines start with the compound.

Compound	SC150 (μM)
COc1cc(S(C)(=O)=O)ccc1NCC#Cc1cc2c(N(C)C)cccc2n1CC(F)(F)F [Molecule 702]	′′′ (′′′ = 0.1 μM ≤ SC150 < 0.2 μM)
CNC(=O)c1ccc(NCC#Cc2cc3c(N[C@@H]4CCN(C)C[C@@H]4F)cccc3n2CC(F)(F)F)c(OC)c1 [Compound 14, 4-{[3-(4-{[(3S,4R)-3-fluoro-1-methylpiperidin-4-yl]amino}-1-(2,2,2-trifluoroethyl)-1H-indol-2-yl)prop-2-yn-1-yl]amino}-3-methoxy-N-methylbenzamide]	′ (′ = 0 μM ≤ SC150 < 0.05 μM)
COc1cc(S(C)(=O)=O)ccc1NCC#Cc1cc2c(N[C@H]3CC[C@H](N4CC5CC(C4)O5)CC3)cccc2n1CC(F)(F)F [Compound 10, 2-{3-[(4-methanesulfonyl-2-methoxyphenyl)amino]prop-1-yn-1-yl}-N-[(1r,4r)-4-{6-oxa-3-azabicyclo[3.1.1]heptan-3-yl}cyclohexyl]-1-(2,2,2-trifluoroethyl)-1H-indol-4-amine]	′ (′ = 0 μM ≤ SC150 < 0.05 μM)

same assay, conditions: concentration required to increase DNA binding activity of p53 Y220C by 50%; TABLE 11

SC150 (μM)	Compound
+ (+ = 0 μM ≤ SC150 < 2 μM)	CN1CC[C@H](Nc2cccc3c2cc(-c2ccc(CNC(=O)c4ccccc4)cc2)n3CC(F)(F)F)[C@H](F)C1 [Molecule 2239]
+ (+ = 0 μM ≤ SC150 < 2 μM)	CN1CC[C@H](Nc2cccc3c2cc(-c2ccc(CNC(=O)C4CC4)cc2)n3CC(F)(F)F)[C@H](F)C1 [Molecule 2240]

same assay, conditions: concentration required to increase DNA binding activity of p53 Y220C by 50%; TABLE 12

SC150 (μM)	Compound
** (** = 0.1 μM ≤ SC150 < 0.5 μM)	N#Cc1cccc(-c2cc3c(NC4CCS(=O)(=O)CC4)cccc3n2CC(F)(F)F)c1 [Molecule 2204]
** (** = 0.1 μM ≤ SC150 < 0.5 μM)	Cc1ccc(-c2cc3c(NC4CCS(=O)(=O)CC4)cccc3n2CC(F)(F)F)c(F)c1 [Molecule 2205]
* (* = 0 μM ≤ SC150 < 0.1 μM)	O=S1(=O)CCC(Nc2cccc3c2cc(-c2cccc(Cl)c2)n3CC(F)(F)F)CC1 [Molecule 2206]

— patent publication US12570645B2, “Uses of p53 x-ray co-crystal structures” (PMV Pharmaceuticals, Inc., priority 2020, dated 2026)
